According to US12577197B2, “Methods of preparing N6-((2-azidoethoxy)carbonyl)lysine” (SANOFI, priority 2019, dated 2026):
Where “and” joins values, the source holds several entries; their conditions need not be identical. Equal entries are not always repeated. Each block holds one molecule with its values, some of them ahead of it.

Tests used:
[1] = Time to maximum rate (TMR) estimated from phi factor corrected ARC data; assay type: physicochemical
Source text: Test data obtained from the ARC can be used to estimate the self-accelerating decomposition temperature of a sample (J. K. Wilberforce, “The Use of the Accelerating Rate calorimeter to determine the SADT of organic peroxides,” Columbia Scientific Industries, Milton Keynes; Harold G. Fisher and David D. Goetz, “Determination of self-accelerating decomposition temperature using the accelerating rate calorimeter,” J. Loss Prev. Process Ind., 1991, Vol 4., 305-316). Time to maximum rate (TMR) is defined as the amount of time that is needed for a reaction to reach its maximum self-heating rate or pressure rate in a thermal runaway reaction. TMR data was extracted from the phi factor corrected test data and a plot of Ln(TMR) against −1000/T was generated (FIG. 4).
The following equation was taken from FIG. 4 to allow the determination of the time to maximum rate as a function of temperature: Ln(TMR(s))=−16.389*(−1000/(T(K)))−29.262 The TMR increases as the batch temperature decreases. The measured exotherm was used to estimate the TMR. The results are provided only as a reference, as it is based on a single ARC test and not a detailed kinetic study (FIG. 5).

[2] = Accelerating rate calorimetry (ARC) study, heat-wait-search mode; conditions: for Onset temperature of exotherm / Onset of exothermic activity: HWS mode, adiabatic, air, titanium bomb; for ΔT adiabatic / Adiabatic Temperature Rise (phi corrected): phi factor 1.6684
[3] = Effect of pH on solubility in water (HPLC of supernatant); assay type: physicochemical
Procedure: To further purify N^6-((2-azidoethoxy)carbonyl)-L-lysine (Formula (VIa)), a suspension of N^6-((2-azidoethoxy)carbonyl)-L-lysine (Formula (VIa)) in water was prepared, followed by addition of HC1 to form a solution. Neutralization of the resulting solution with ammonium hydroxide reprecipitates the product and further purges the material of residual impurities, which remain in solution. In order to improve product yield, the effect of pH on the solubility of N^6-((2-azidoethoxy)carbonyl)-L-lysine (Formula (VIa)) was examined. Briefly, this study involved suspending N^6-((2-azidoethoxy)carbonyl)-L-lysine (Formula (VIa)) in water, progressively basifying the mixture, and determining the amount of N^6-((2-azidoethoxy)carbonyl)-L-lysine (Formula (VIa)) in the supernatant as a function of pH.
N^6-((2-azidoethoxy)carbonyl)-L-lysine (Formula (VIa)) (0.95 g) was charged into a 20 mL glass scintillation vial along with water (7.2 g). The resulting suspension was thoroughly mixed on a vortex apparatus for 60 seconds, then allowed to settle for 5 minutes. The pH of the supernatant was measured at 4.44 and an aliquot was taken and diluted with HPLC eluent (H2O:CH3CN 1:1, 0.1% TFA). The sample was analyzed by HPLC (column: ACE Excel 3 Super C18, 4.6×150 mm, 3.0 μm, flow rate: 1.2 mL/min, phase A: 0.1% TFA in water, phase B: 0.1% TFA in acetonitrile) and the content of N^6-((2-azidoethoxy)carbonyl)-L-lysine (Formula (VIa)) was calculated based on HPLC analysis of Formula (VIa) standards.
The contents of the scintillation vial were basified by addition of a drop of 28-30% ammonium hydroxide, and the suspension was vortexed, allowed to decant, and the supernatant was again sampled and analyzed by HPLC.

Time to maximum rate (TMR) ([1]; 122.0 ° C.): 48.3 h | Time to maximum rate (TMR) ([1]; 129.0 ° C.): 23.5 h | Time to maximum rate (TMR) ([1]; 140.0 ° C.): 7.9 h | Time to maximum rate (TMR) ([1]; 160.0 ° C. (onset temperature of 2nd exotherm)): 1.3 h | Maximum pressure of test [2]: 157.1 Bar gauge | Maximum pressure rate of test [2]: 2.756 Bar min^−1 | Maximum self-heating rate of test [2]: 2.10 K min^−1 | Temperature at maximum pressure rate [2]: 208.5 °C | Temperature at maximum self-heat rate [2]: 211.5 °C | Final temperature of exotherm / End of exothermic activity ([2]; 1st exotherm): 100.79 °C | ΔT ([2]; 1st exotherm): 0.65 °C | Onset temperature of exotherm / Onset of exothermic activity ([2]; 1st exotherm): 100.14 °C | ΔT adiabatic / Adiabatic Temperature Rise (phi corrected) ([2]; 1st exotherm): 1.08 °C | ΔH reaction ([2]; 1st exotherm, sample heat capacity estimated 2.10): −2.27 Joule/gram | Onset temperature of exotherm / Onset of exothermic activity ([2]; 2nd (major) exotherm): 160.5 °C and 160.48 °C | Final temperature of exotherm / End of exothermic activity ([2]; 2nd exotherm): 227.19 °C | ΔT ([2]; 2nd exotherm): 66.71 °C | ΔT adiabatic / Adiabatic Temperature Rise (phi corrected) ([2]; 2nd exotherm): 111.29 °C | ΔH reaction ([2]; 2nd exotherm, sample heat capacity estimated 2.10): −233.71 Joule/gram | Heat of reaction (exothermic) ([2]; Exotherm 1): -2.27 J/g | Heat of reaction (exothermic) ([2]; Exotherm 2): -233.71 J/g | ΔH reaction ([2]; Value column (both exotherms together)): −235.99 Joule/gram | non-condensable gas remained in the bomb after completion of the test ([2]; after cooling to near ambient temperature at 30.7° C.): 35.5 Bar gauge | Total heat released during the ARC test (all exotherms) ([2]; all exotherms): -235.98 J/g | maximum pressure rate ([2]; at 208.5° C.): 2.756 bar/min | maximum self-heat rate recorded ([2]; at 211.5° C.): 2.098 K/min | thermal hazard in preparing the compound ([2]; conclusion from ARC and TMR data): no significant thermal hazard | Maximum temperature of test ([2]; test stopped by pressure trip): 379.2 °C | total heat of the two exotherms ([2]; two exotherms): 236.0 J/g
Structure (SMILES): CC(C)(C)OC(=O)N[C@@H](CCCCNC(=O)OCCN=[N+]=[N-])C(=O)OC(C)(C)C [Formula (IIIa)]

Amount of Formula (VIa) in supernatant ([3]; Supernatant 1, pH 4.44, 0.95 g suspended in 7.2 g water): 36 mg | Amount of Formula (VIa) in supernatant ([3]; Supernatant 2, pH 8.13, basified with ammonium hydroxide): 37 mg | Amount of Formula (VIa) in supernatant ([3]; Supernatant 3, pH 8.58): 38 mg | Amount of Formula (VIa) in supernatant ([3]; Supernatant 4, pH 8.73): 40 mg | Amount of Formula (VIa) in supernatant ([3]; Supernatant 5, pH 8.86): 42 mg | Amount of Formula (VIa) in supernatant ([3]; Supernatant 6, pH 9.00): 44 mg | Amount of Formula (VIa) in supernatant ([3]; Supernatant 7, pH 9.26): 44 mg
Structure (SMILES): [N-]=[N+]=NCCOC(=O)NCCCC[C@H](N)C(=O)O [Formula (VIa), N^6-((2-azidoethoxy)carbonyl)-L-lysine]
amount of product in supernatant of a saturated aqueous solution ([3]; pH range from 4 to 8): roughly the same amount of product in its supernatant
